Data published in PubChem BioAssay (NCI).
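GI50 = concentration required for 50% inhibition of growth. At the TGI there is no net growth.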

Tests used:
Experiment in all cases: growth of human tumour cells (NCI), 384-well format
HOP-92 NSCLC = tested on: HOP-92 NSCLC
SF-295 CNS = tested on: SF-295 CNS
MDA-MB-468 breast = tested on: MDA-MB-468 breast
UACC-62 melanoma = tested on: UACC-62 melanoma
ACHN renal = tested on: ACHN renal
SF-268 CNS = tested on: SF-268 CNS
LOX IMVI melanoma = tested on: LOX IMVI melanoma
NCI-H322M lung = tested on: NCI-H322M lung
NCI-H23 lung = tested on: NCI-H23 lung
HS 578T breast = tested on: HS 578T breast
IGROV1 ovarian = tested on: IGROV1 ovarian
TK-10 renal = tested on: TK-10 renal
MALME-3M melanoma = tested on: MALME-3M melanoma
HCT-116 colon = tested on: HCT-116 colon
NCI/ADR-RES ovarian = tested on: NCI/ADR-RES ovarian
RXF 393 renal = tested on: RXF 393 renal
CCRF-CEM leukemia = tested on: CCRF-CEM leukemia
OVCAR-3 ovarian = tested on: OVCAR-3 ovarian
T-47D breast = tested on: T-47D breast
DU-145 prostate = tested on: DU-145 prostate
SNB-19 CNS = tested on: SNB-19 CNS
RPMI-8226 leukemia = tested on: RPMI-8226 leukemia
CAKI-1 renal = tested on: CAKI-1 renal
SN12C renal = tested on: SN12C renal
KM12 colon = tested on: KM12 colon
HOP-62 NSCLC = tested on: HOP-62 NSCLC
K-562 leukemia = tested on: K-562 leukemia
786-0 renal = tested on: 786-0 renal
SR leukemia = tested on: SR leukemia
SK-MEL-28 melanoma = tested on: SK-MEL-28 melanoma
MDA-MB-435 melanoma = tested on: MDA-MB-435 melanoma
BT-549 breast = tested on: BT-549 breast
NCI-H460 NSCLC = tested on: NCI-H460 NSCLC
UACC-257 melanoma = tested on: UACC-257 melanoma
OVCAR-8 ovarian = tested on: OVCAR-8 ovarian
COLO 205 colon = tested on: COLO 205 colon
OVCAR-4 ovarian = tested on: OVCAR-4 ovarian
U251 glioblastoma = tested on: U251 glioblastoma
HCT-15 colon = tested on: HCT-15 colon
SK-OV-3 ovarian = tested on: SK-OV-3 ovarian
A549 NSCLC = tested on: A549 NSCLC
NCI-H522 lung = tested on: NCI-H522 lung
SNB-75 CNS = tested on: SNB-75 CNS
SK-MEL-5 melanoma = tested on: SK-MEL-5 melanoma
NCI-H226 lung = tested on: NCI-H226 lung
M14 melanoma = tested on: M14 melanoma
EKVX NSCLC = tested on: EKVX NSCLC
SF-539 CNS = tested on: SF-539 CNS
MOLT-4 leukemia = tested on: MOLT-4 leukemia
HT29 colon = tested on: HT29 colon
PC-3 prostate = tested on: PC-3 prostate
SW-620 colon = tested on: SW-620 colon
HL-60(TB) leukemia = tested on: HL-60(TB) leukemia
A498 renal = tested on: A498 renal
MDA-MB-231 breast = tested on: MDA-MB-231 breast
UO-31 renal = tested on: UO-31 renal

In the case of `COc1cc(-c2cnn(C)c2)ccc1Nc1ncc2ccnc(N[C@@H](C)C(C)(C)C)c2n1`, the GI50 (HOP-92 NSCLC) is reported as 27.5 µM, the TGI (HOP-92 NSCLC) is reported as > 100 µM and the GI50 (SF-295 CNS) is reported as 3.54 µM. For the same molecule, the TGI (SF-295 CNS) was > 100 µM, the GI50 (MDA-MB-468 breast) was 0.486 µM and the TGI (MDA-MB-468 breast) was > 100 µM. For the same molecule, the GI50 (UACC-62 melanoma) was 7.46 µM, the TGI (UACC-62 melanoma) was 88.1 µM and the GI50 (ACHN renal) was 3.26 µM. For the same molecule, the TGI (ACHN renal) was > 100 µM, the GI50 (SF-268 CNS) was 2.08 µM and the TGI (SF-268 CNS) was > 100 µM. For the same molecule, the GI50 (LOX IMVI melanoma) was 0.0893 µM, the TGI (LOX IMVI melanoma) was > 100 µM and the GI50 (NCI-H322M lung) was > 100 µM. The TGI (NCI-H322M lung) was > 100 µM, the GI50 (NCI-H23 lung) was 2.41 µM and the TGI (NCI-H23 lung) was > 100 µM. The GI50 (HS 578T breast) was 1.7 µM, the TGI (HS 578T breast) was 45 µM and the GI50 (IGROV1 ovarian) was > 100 µM. The TGI (IGROV1 ovarian) was > 100 µM, the GI50 (TK-10 renal) was 23.2 µM and the TGI (TK-10 renal) was > 100 µM. The GI50 (MALME-3M melanoma) was > 100 µM, the TGI (MALME-3M melanoma) was > 100 µM and the GI50 (HCT-116 colon) was 0.0447 µM. For the same molecule, the TGI (HCT-116 colon) was > 100 µM, the GI50 (NCI/ADR-RES ovarian) was 0.442 µM and the TGI (NCI/ADR-RES ovarian) was > 100 µM. It also gave a GI50 (RXF 393 renal) of 0.29 µM, a TGI (RXF 393 renal) of 13 µM and a GI50 (CCRF-CEM leukemia) of 0.0835 µM. The TGI (CCRF-CEM leukemia) was 0.271 µM, the GI50 (OVCAR-3 ovarian) was > 100 µM and the TGI (OVCAR-3 ovarian) was > 100 µM. The GI50 (T-47D breast) was > 100 µM, the TGI (T-47D breast) was > 100 µM and the GI50 (DU-145 prostate) was 0.376 µM. The TGI (DU-145 prostate) was > 100 µM, the GI50 (SNB-19 CNS) was 60.3 µM and the TGI (SNB-19 CNS) was > 100 µM. For the same molecule, the GI50 (RPMI-8226 leukemia) was 0.302 µM, the TGI (RPMI-8226 leukemia) was > 100 µM and the GI50 (CAKI-1 renal) was > 100 µM. The TGI (CAKI-1 renal) was > 100 µM, the GI50 (SN12C renal) was > 100 µM and the TGI (SN12C renal) was > 100 µM. The GI50 (KM12 colon) was 0.0699 µM, the TGI (KM12 colon) was > 100 µM and the GI50 (HOP-62 NSCLC) was 0.498 µM. The TGI (HOP-62 NSCLC) was > 100 µM, the GI50 (K-562 leukemia) was 0.878 µM and the TGI (K-562 leukemia) was > 100 µM. The GI50 ([…]-0 renal) was 0.474 µM, the TGI (786-0 renal) was > 100 µM and the TGI (SR leukemia) was 0.0523 µM. For the same molecule, the GI50 (SK-MEL-28 melanoma) was > 100 µM, the TGI (SK-MEL-28 melanoma) was > 100 µM and the GI50 (MDA-MB-435 melanoma) was > 100 µM. The TGI (MDA-MB-435 melanoma) was > 100 µM, the GI50 (BT-549 breast) was 53.6 µM and the TGI (BT-549 breast) was > 100 µM. For the same molecule, the GI50 (NCI-H460 NSCLC) was 0.0673 µM, the TGI (NCI-H460 NSCLC) was > 100 µM and the GI50 (UACC-257 melanoma) was > 100 µM. The TGI (UACC-257 melanoma) was > 100 µM, the GI50 (OVCAR-8 ovarian) was 0.326 µM and the TGI (OVCAR-8 ovarian) was > 100 µM. For the same molecule, the GI50 (COLO 205 colon) was 0.0809 µM, the TGI (COLO 205 colon) was > 100 µM and the GI50 (OVCAR-4 ovarian) was > 100 µM. The TGI (OVCAR-4 ovarian) was > 100 µM, the GI50 (U251 glioblastoma) was 2.09 µM and the TGI (U251 glioblastoma) was > 100 µM. For the same molecule, the GI50 (HCT-15 colon) was 0.05 µM, the TGI (HCT-15 colon) was > 100 µM and the GI50 (SK-OV-3 ovarian) was > 100 µM. The TGI (SK-OV-3 ovarian) was > 100 µM, the GI50 (A549 NSCLC) was 0.115 µM and the TGI (A549 NSCLC) was > 100 µM. For the same molecule, the GI50 (NCI-H522 lung) was 0.577 µM, the TGI (NCI-H522 lung) was > 100 µM and the GI50 (SNB-75 CNS) was 1.31 µM. For the same molecule, the TGI (SNB-75 CNS) was > 100 µM, the GI50 (SK-MEL-5 melanoma) was > 100 µM and the TGI (SK-MEL-5 melanoma) was > 100 µM. The GI50 (NCI-H226 lung) was > 100 µM, the TGI (NCI-H226 lung) was > 100 µM and the GI50 (M14 melanoma) was 10.9 µM. For the same molecule, the TGI (M14 melanoma) was > 100 µM, the GI50 (EKVX NSCLC) was > 100 µM and the TGI (EKVX NSCLC) was > 100 µM. For the same molecule, the GI50 (SF-539 CNS) was 0.476 µM, the TGI (SF-539 CNS) was > 100 µM and the GI50 (MOLT-4 leukemia) was 0.026 µM. The TGI (MOLT-4 leukemia) was 0.0647 µM, the GI50 (HT29 colon) was 0.632 µM and the TGI (HT29 colon) was > 100 µM. For the same molecule, the GI50 (PC-3 prostate) was > 100 µM, the TGI (PC-3 prostate) was > 100 µM and the GI50 (SW-620 colon) was 0.112 µM. The TGI (SW-620 colon) was > 100 µM, the GI50 (HL-60(TB) leukemia) was 0.11 µM and the TGI (HL-60(TB) leukemia) was 0.318 µM. The GI50 (A498 renal) was 0.505 µM, the TGI (A498 renal) was > 100 µM and the GI50 (MDA-MB-231 breast) was 3 µM. For the same molecule, the TGI (MDA-MB-231 breast) was > 100 µM, the GI50 (UO-31 renal) was 14.1 µM and the TGI (UO-31 renal) was > 100 µM.
